According to patent publication US5324502A, “Radiopharmaceuticals for imaging the heart” (priority 1992, dated 1994):
Like-named read-outs stand apart in the source and are kept apart here.

Assays:
[1] = PET imaging of the heart with the 68Ga complex; conditions: dog, 20 mCi bolus i.v.
Description: The dog was placed in a plexiglass holder and positioned within the PET VI camera, a positron emission tomograph that permits simultaneous acquisition of seven transverse tomographic slices with a slice-to-slice separation of 1.44 cm, a slice thickness of 1.39 cm, and a reconstructed resolution of 12.0 mm (full width at half maximum). A transmission scan, necessary for attenuation correction, was obtained using an external ring of ^68 Ge/^68 Ga. A ^15 O-myocardial perfusion image was then obtained for reference employing ^15 O-water and ^15 O-carbon monoxide in a standard PET protocol. After decay of the ^15 O activity to background levels, the ^68 Ga-bis(4,6-dimethoxysalicylaldimino)-N,N'-bis(aminopropyl) ethylene-diamine radiopharmaceutical (20 mCi) was administered to the dog as a bolus intravenous injection. Dynamic PET data was collected for ten 1 minute frames commencing at the time of ^68 Ga injection, followed by eight consecutive 10 minute static images. PET images of the chest were reconstructed from each of the ten one minute frames and each of the eight 10 minute frames. […] Regions-of-interest were defined in the ^68 Ga images allowing quantitative determination of regional myocardial tissue concentrations of tracer.

[2] = Octanol/water partition coefficient of radiolabeled gallium complexes; assay type: physicochemical; conditions: octanol/tris buffer, pH 7
Procedure: Octanol/water partition coefficients were measured by vortex mixing 1 mL of 1-octanol and 1 mL of isotonic Tris buffer (pH 7.0) with a 1-5 μL sample of the radiolabeled gallium complex. Following centrifugation at >1200 g for 5 minutes, the octanol and aqueous phases were sampled and counted in an automatic well counter.

[3] = rat, in vivo, iv
Procedure, shortened: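 Male Sprague-Dawley rats under ether anesthesia received 1 to 3 μCi of no-carrier-added Ga-67 complex as a femoral-vein bolus. Animals were killed at set times post-injection; organs weighed and counted. Values given as % injected dose per gram and per organ.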

## COc1cc([O-])c(C=NCCCNCCNCCCN=Cc2c([O-])cc(OC)cc2OC)c(OC)c1.[68Ga+3] [^68 Ga-bis(4,6-dimethoxysalicylaldimino)-N,N'-bis(aminopropyl)ethylenediamine]
[1]; 90 minute imaging period
  clearance of myocardial ^68 Ga radioactivity: No clearance of myocardial ^68 Ga radioactivity was observed
[1]; beyond 20 minutes post-injection
  delineation of the heart in ^68 Ga PET images: the heart was clearly delineated in the ^68 Ga-images with good heart-to-blood and heart-to-lung contrast

## COc1ccc(C=NCCCNCCNCCCN=Cc2ccc(OC)cc2[O-])c([O-])c1.[67Ga+3] [(4-MeOSal)2 BAPEN, ^67 GaL^+ L = [bis(4-methoxysalicylaldimino)-N,N'-bis(3-aminopropyl)-ethylenediamine]]
[2]
  log P: 0.80
[3]
  % injected dose in heart, 1 min: 0.67 ± 0.08 % injected dose
  % injected dose in heart, 2 h: 0.65 ± 0.05 % injected dose
[3]; 1 min
  % Injected Dose per Gram Tissue, Blood: 0.32 ± 0.02
  % Injected Dose per Gram Tissue, Brain: 0.02 ± 0.01
  % Injected Dose per Gram Tissue, Heart: 0.96 ± 0.07
  % Injected Dose per Gram Tissue, Kidney (one): 11.08 ± 0.88
  % Injected Dose per Gram Tissue, Liver: 3.05 ± 0.27
  % Injected Dose per Gram Tissue, Lungs: 0.91 ± 0.09
  % Injected Dose per Gram Tissue, Spleen: 0.31 ± 0.05
  Heart/Blood: 2.99 ± 0.15
[3]; 2 h
  % Injected Dose per Gram Tissue, Blood: 0.03 ± 0.01
  % Injected Dose per Gram Tissue, Brain: 0.01 ± 0.003
  % Injected Dose per Gram Tissue, Heart: 0.92 ± 0.07
  % Injected Dose per Gram Tissue, Kidney (one): 2.19 ± 0.08
  % Injected Dose per Gram Tissue, Liver: 0.63 ± 0.20
  % Injected Dose per Gram Tissue, Lungs: 0.32 ± 0.02
  % Injected Dose per Gram Tissue, Spleen: 0.17 ± 0.03
  Heart/Blood: 30.58 ± 2.22
[3]; […]
  % Injected Dose per Gram Tissue, Blood: 0.06 ± 0.01
  % Injected Dose per Gram Tissue, Brain: 0.01 ± 0.001
  % Injected Dose per Gram Tissue, Heart: 1.01 ± 0.08
  % Injected Dose per Gram Tissue, Kidney (one): 4.47 ± 0.62
  % Injected Dose per Gram Tissue, Liver: 1.71 ± 0.40
  % Injected Dose per Gram Tissue, Lungs: 0.38 ± 0.05
  % Injected Dose per Gram Tissue, Spleen: 0.22 ± 0.02
  Heart/Blood: 17.62 ± 0.31
